Structures can show the parent of a compound that is named as a salt.

In this experiment the target is S1P1/EDG1 (Homo sapiens, UniProt P21453). The experiment can be described thus: S1P1 CRE-bla CHOK1 reporter assay, inhibition of Forskolin induced cAMP. It counts as cell-based. The note with it: agonist activity range; S1P1 CRE-bla CHOK1 cells, 2 μM Forskolin; read-out: S1P1 ACTIVITY
Chain of S1P1/EDG1 (P21453 whole entry): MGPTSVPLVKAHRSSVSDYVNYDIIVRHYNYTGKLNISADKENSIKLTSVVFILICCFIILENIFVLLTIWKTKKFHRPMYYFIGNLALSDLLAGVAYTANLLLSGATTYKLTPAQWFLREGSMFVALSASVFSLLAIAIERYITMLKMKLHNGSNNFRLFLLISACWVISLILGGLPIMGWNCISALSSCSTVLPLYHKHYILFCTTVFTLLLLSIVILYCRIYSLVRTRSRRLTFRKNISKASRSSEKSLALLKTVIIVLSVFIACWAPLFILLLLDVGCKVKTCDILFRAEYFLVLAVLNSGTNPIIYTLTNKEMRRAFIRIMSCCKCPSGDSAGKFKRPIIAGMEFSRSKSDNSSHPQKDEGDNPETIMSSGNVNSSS
In outline:
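CRE-bla CHO K1 cells stably expressing human S1P1 were treated 4 hrs at 37° C with 10-point compound dilutions plus 2 μM Forskolin. Inhibition of cAMP-driven β-lactamase reporter was read with a FRET substrate loaded 2 hrs at room temperature.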
A general note: In a reporter assay the amount or activity of a reporter protein is the signal.
Take `CC(C)Oc1ccc(-c2ncc(-c3cccc4c3CC[C@H]4NC(=O)N3CC[C@H](N(C)C)C3)s2)cc1C#N` [Compound 182]: the EC50 was 0.5 to 5 nM.

As for `CC(C)Oc1ccc(-c2nnc(-c3cccc4c3CCC[C@H]4NC(=O)[C@H](N)CO)s2)cc1C#N` [Compound 247], the EC50 lay within 0.5 to 5 nM. For the molecule `COCC(=O)N[C@@H]1CCCc2c(-c3nnc(-c4ccc(OC(C)C)c(C#N)c4)s3)cccc21` [Compound 237], the EC50 fell in the range of 0.05 to 0.5 nM. Turning to `CC(C)Oc1ccc(-c2nnc(-c3cccc4c3CCC[C@H]4NC(=O)c3ccccn3)s2)cc1C#N` [Compound 235], the EC50 lay in the range of 0.5 to 5 nM. On to `CC(C)Oc1ccc(-c2ncc(-c3cccc4c3CC[C@H]4NS(=O)(=O)CCN3CCOCC3)s2)cc1C#N` [Compound 121], for which the EC50 lay in the range of 0.5 to 5 nM.

As for `CC(C)Oc1ccc(-c2ncc(-c3cccc4c3CC[C@H]4NCCO)s2)cc1C#N` [Compound 91, (R)-5-(5-(1-((2-hydroxyethyl)amino)-2,3-dihydro-1H-inden-4-yl)thiazol-2-yl)-2-isopropoxybenzonitrile], the EC50 lay in the range of 0.5 to 5 nM. `CC(C)Oc1ccc(-c2nnc(-c3cccc4c3CCC[C@@H]4NC(=O)c3cccnc3)s2)cc1C#N` [Compound 242]: the EC50 fell in the range of 0.5 to 5 nM. Consider `COCCS(=O)(=O)N[C@@H]1CCCc2c(-c3nnc(-c4ccc(OC(C)C)c(C#N)c4)s3)cccc21` [Compound 280, (R)—N-(5-(5-(3-cyano-4-isopropoxyphenyl)-1,3,4-thiadiazol-2-yl)-1,2,3,4-tetrahydronaphthalen-1-yl)-2-methoxyethanesulfonamide], for which the EC50 was in the range of 0.5 to 5 nM. The figure for `CC(C)Oc1ccc(-c2nnc(-c3cccc4c3CC[C@H]4NS(C)(=O)=O)s2)cc1C#N` [Compound 34, (R)—N-(4-(5-(3-cyano-4-isopropoxyphenyl)-1,3,4-thiadiazol-2-yl)-2,3-dihydro-1H-inden-1-yl)methanesulfonamide] is 0.05 to 0.5 nM; for `CC(C)Oc1ccc(-c2ncc(-c3cccc4c3CC[C@H]4NS(C)(=O)=O)s2)cc1C#N` [Compound 111, (R)—N-(4-(2-(3-cyano-4-isopropoxyphenyl)thiazol-5-yl)-2,3-dihydro-1H-inden-1-yl)methanesulfonamide] it is 0.05 to 0.5 nM. The figure for `CC(C)Oc1ccc(-c2nsc(-c3cccc4c3CC[C@@H]4NS(N)(=O)=O)n2)cc1C#N` [Compound 310, (S)—N-(4-(3-(3-cyano-4-isopropoxyphenyl)-1,2,4-thiadiazol-5-yl)-2,3-dihydro-1H-inden-1-yl) sulfamide] is 0.05 to 0.5 nM; for `CC(C)Oc1ccc(-c2nnc(-c3cccc4c3CCC[C@H]4NC(=O)CO)s2)cc1C#N` [Compound 245, (R)—N-(5-(5-(3-cyano-4-isopropoxyphenyl)-1,3,4-thiadiazol-2-yl)-1,2,3,4-tetrahydronaphthalen-1-yl)-2-hydroxyacetamide] it is 0.05 to 0.5 nM; for `CC(C)Oc1ccc(-c2ncc(-c3cccc4c3CC[C@H]4NC(=O)[C@H](N)CO)s2)cc1C#N` [Compound 80] it is 0.05 to 0.5 nM. The figure for `CC(C)Oc1ccc(-c2nnc(-c3cccc4c3CCC[C@@H]4NCC(=O)N3CCCC3)s2)cc1C#N` [Compound 304, (S)-2-isopropoxy-5-(5-(5-((2-oxo-2-(pyrrolidin-1-yl)ethyl)amino)-5,6,7,8-tetrahydronaphthalen-1-yl)-1,3,4-thiadiazol-2-yl)benzonitrile] is 0.5 to 5 nM; for `CC(C)Oc1ccc(-c2ncc(-c3cccc4c3CC[C@H]4NS(=O)(=O)CCN3CC[C@@H](N)C3)s2)cc1C#N` [Compound 135] it is over 5 nM; for `CC(C)Oc1ccc(-c2nc(-c3cccc4c3CC[C@@H]4N)ns2)cc1C#N` [Compound 307, (S)-5-(3-(1-amino-2,3-dihydro-1H-Inden-4-yl)-1,2,4-thiadiazol-5-yl)-2-isopropoxy benzonitrile hydrochloride] it is 0.5 to 5 nM. With `CC(C)Oc1ccc(-c2nnc(-c3cccc4c3CCC[C@@H]4NC(=O)CCO)s2)cc1C#N` [Compound 255], the EC50 was in the range of 0.05 to 0.5 nM. On to `CC(C)Oc1ccc(-c2nnc(-c3cccc4c3CC[C@H]4NCc3ncc[nH]3)s2)cc1C#N` [Compound 29, (R)-5-(5-(1-(((1H-imidazol-2-yl)methyl)amino)-2,3-dihydro-1H-inden-4-yl)-1,3,4-thiadiazol-2-yl)-2-isopropoxybenzonitrile], for which the EC50 is 0.05 to 0.5 nM. On to `COCCN[C@@H]1CCc2c(-c3nnc(-c4ccc(OC(C)C)c(C#N)c4)s3)cccc21` [Compound 19], for which the EC50 lay in the range of 0.5 to 5 nM.

Regarding `CC(C)Oc1ccc(-c2ncc(-c3cccc4c3CC[C@H]4NS(=O)(=O)CCN3CC[C@@H](O)C3)s2)cc1C#N` [Compound 133], the EC50 lay within 0.5 to 5 nM. For `CC(C)Oc1ccc(-c2nc(-c3cccc4c3CC[C@@H]4N(CCO)CCO)ns2)cc1C#N` [Compound 312, (S)-5-(3-(1-(bis(2-hydroxyethyl)amino)-2,3-dihydro-1H-inden-4-yl)-1,2,4-thiadiazol-5-yl)-2-isopropoxybenzonitrile hydrochloride], the EC50 is 0.5 to 5 nM. Turning to `CC(C)Oc1ccc(-c2ncc(-c3cccc4c3CC[C@H]4NC(=O)N3CC[C@@H](O)C3)s2)cc1C#N` [Compound 174], the EC50 fell in the range of 0.05 to 0.5 nM. Regarding `CC(C)Oc1ccc(-c2ncc(-c3cccc4c3CC[C@H]4NS(=O)(=O)CCN3CCC[C@@H](O)C3)s2)cc1C#N` [Compound 143, N—((R)-4-(2-(3-cyano-4-isopropoxyphenyl)thiazol-5-yl)-2,3-dihydro-1H-inden-1-yl)-2-((R)-3-hydroxypiperidin-1-yl)ethanesulfonamide], the EC50 is 0.5 to 5 nM.

For `CC(C)Oc1ccc(-c2nnc(-c3cccc4c3CC[C@H]4NCC(=O)N3CCOCC3)s2)cc1C#N` [Compound 25], the EC50 was in the range of 0.05 to 0.5 nM. For `COCC(=O)N[C@H]1CCCc2c(-c3nnc(-c4ccc(OC(C)C)c(C#N)c4)s3)cccc21` [Compound 239], the EC50 was 0.5 to 5 nM. For the molecule `CC(C)Oc1ccc(-c2nnc(-c3cccc4c3CCC[C@H]4NC(=O)CCN)s2)cc1C#N` [Compound 249], the EC50 is 0.5 to 5 nM. With `CC(C)Oc1ccc(-c2nnc(-c3cccc4c3CCC[C@H]4NC(=O)CN(C)C)s2)cc1C#N` [Compound 236], the EC50 was 0.5 to 5 nM.

Regarding `CC(C)Oc1ccc(-c2nnc(-c3cccc4c3CCC[C@H]4N)s2)cc1C#N` [Compound 228, (R)-5-(5-(5-amino-5,6,7,8-tetrahydronaphthalen-1-yl)-1,3,4-thiadiazol-2-yl)-2-isopropoxybenzonitrile hydrochloride], the EC50 fell in the range of 0.5 to 5 nM. For the molecule `COC(=O)CCS(=O)(=O)N[C@@H]1CCc2c(-c3cnc(-c4ccc(OC(C)C)c(C#N)c4)s3)cccc21` [Compound 156], the EC50 lay in the range of 0.05 to 0.5 nM. Take `CC(C)Oc1ccc(-c2nnc(-c3cccc4c3CCC[C@@H]4NCc3cccnc3)s2)cc1C#N` [Compound 271, (S)-2-isopropoxy-5-(5-(5-((pyridin-3-ylmethyl)amino)-5,6,7,8-tetrahydronaphthalen-1-yl)-1,3,4-thiadiazol-2-yl)benzonitrile]: the EC50 was 0.5 to 5 nM. Consider `CC(C)Oc1ccc(-c2nnc(-c3cccc4c3CCC[C@H]4NC(=O)CCO)s2)cc1C#N` [Compound 259], for which the EC50 is 0.05 to 0.5 nM. Regarding `CC(C)Oc1ccc(-c2nnc(-c3cccc4c3CCC[C@H]4NCC(=O)O)s2)cc1C#N` [Compound 301, (R)-2-((5-(5-(3-cyano-4-isopropoxyphenyl)-1,3,4-thiadiazol-2-yl)-1,2,3,4-tetrahydronaphthalen-1-yl)amino)acetic acid], the EC50 is 0.05 to 0.5 nM. For the molecule `CC(C)Oc1ccc(-c2ncc(-c3cccc4c3CCC[C@H]4NS(N)(=O)=O)s2)cc1C#N` [Compound 277, (R)—N-(5-(2-(3-cyano-4-isopropoxyphenyl)thiazol-5-yl)-1,2,3,4-tetrahydronaphthalen-1-yl)sulfamide], the EC50 lay within 0.05 to 0.5 nM. With `CC(C)Oc1ccc(-c2nnc(-c3cccc4c3CCC[C@@H]4NCc3ncco3)s2)cc1C#N` [Compound 268], the EC50 was in the range of 0.5 to 5 nM. For `COCC(=O)N[C@@H]1CCc2c(-c3cnc(-c4ccc(OC(C)C)c(C#N)c4)s3)cccc21` [Compound 75], the EC50 was 0.05 to 0.5 nM. Turning to `COCCS(=O)(=O)N[C@@H]1CCc2c(-c3cnc(-c4ccc(OC(C)C)c(C#N)c4)s3)cccc21` [Compound 116], the EC50 lay within 0.5 to 5 nM. For the molecule `CC(C)Oc1ccc(-c2ncc(-c3cccc4c3CC[C@H]4NC(=O)[C@@H](N)CO)s2)cc1C#N` [Compound 79], the EC50 lay within 0.05 to 0.5 nM. The figure for `CC(C)Oc1ccc(-c2nnc(-c3cccc4c3CC[C@H]4NC(=O)CN)s2)cc1C#N` [Compound 9] is 0.05 to 0.5 nM.

The values above are taken from patent US9481659B2, “Selective heterocyclic sphingosine 1 phosphate receptor modulators” (Celgene International II SÀRL, priority 2011, dated 2016).
